Key:
[1] = tested on: cerebellar membranes (IP3R1); assay: ^3H-IP3 binding to cerebellar membranes; conditions: ^3H-IP3 1.5 nM, in CLM
Method: (§1) Reactions were terminated after 5 min by centrifugation (20,000× g, 5 min) for membranes, or by centrifugation after addition of poly(ethylene glycol)-8000 [30% (w/v), 500 μL] and γ-globulin (30 μL, 25 mg·mL^−1) for NT. […] Results were fitted to Hill equations using Prism, from which IC50 values were calculated.

[2] = tested on: permeabilized DT40-IP3R1-3 cells; assay: Ca^2+ uptake and Ca^2+ content of the intracellular stores of permeabilized DT40 cells; type: cell-based
Method: Briefly, the ER was loaded with indicator by incubating cells (∼5 × 10^7 mL^−1) in the dark with Mag-fluo-4AM (20 μM) in HEPES-buffered saline (HBS) containing 0.02% (v/v) Pluronic F127 for 1 h at 22°C. […] Ca^2+-free CLM had the following composition: 2 mM NaCl, 140 mM KCl, 1 mM EGTA, 20 mM PIPES, 2 mM MgCl2, pH 7.0. Permeabilized cells were then distributed into 96-well plates (50 μL, 5 × 10^5 cells per well), centrifuged (300× g, 2 min) and used for experiments at 20°C. […] After 2 min, when the ER had loaded to steady-state with Ca^2+, IP3 was added with CPA (10 μM) to inhibit further Ca^2+ uptake. […] The timings of antagonist additions are described in the figure legends. The affinity of each competitive antagonist (pKD) was determined from the intercept on the abscissa of the Schild plot.

[3] = molecular target: T1, mouse IP3R2 (Mus musculus, UniProt Q9Z329); assay: IP3-evoked Ca^2+ release from permeabilized DT40-IP3R2 cells; type: cell-based
T1 construct: different for NTs (NT2 > NT1 > > NT3) and full-length IP3Rs (IP3R3 > IP3R1 ≥ IP3R2); expressed in transfected cells
T1 sequence (Q9Z329 whole entry): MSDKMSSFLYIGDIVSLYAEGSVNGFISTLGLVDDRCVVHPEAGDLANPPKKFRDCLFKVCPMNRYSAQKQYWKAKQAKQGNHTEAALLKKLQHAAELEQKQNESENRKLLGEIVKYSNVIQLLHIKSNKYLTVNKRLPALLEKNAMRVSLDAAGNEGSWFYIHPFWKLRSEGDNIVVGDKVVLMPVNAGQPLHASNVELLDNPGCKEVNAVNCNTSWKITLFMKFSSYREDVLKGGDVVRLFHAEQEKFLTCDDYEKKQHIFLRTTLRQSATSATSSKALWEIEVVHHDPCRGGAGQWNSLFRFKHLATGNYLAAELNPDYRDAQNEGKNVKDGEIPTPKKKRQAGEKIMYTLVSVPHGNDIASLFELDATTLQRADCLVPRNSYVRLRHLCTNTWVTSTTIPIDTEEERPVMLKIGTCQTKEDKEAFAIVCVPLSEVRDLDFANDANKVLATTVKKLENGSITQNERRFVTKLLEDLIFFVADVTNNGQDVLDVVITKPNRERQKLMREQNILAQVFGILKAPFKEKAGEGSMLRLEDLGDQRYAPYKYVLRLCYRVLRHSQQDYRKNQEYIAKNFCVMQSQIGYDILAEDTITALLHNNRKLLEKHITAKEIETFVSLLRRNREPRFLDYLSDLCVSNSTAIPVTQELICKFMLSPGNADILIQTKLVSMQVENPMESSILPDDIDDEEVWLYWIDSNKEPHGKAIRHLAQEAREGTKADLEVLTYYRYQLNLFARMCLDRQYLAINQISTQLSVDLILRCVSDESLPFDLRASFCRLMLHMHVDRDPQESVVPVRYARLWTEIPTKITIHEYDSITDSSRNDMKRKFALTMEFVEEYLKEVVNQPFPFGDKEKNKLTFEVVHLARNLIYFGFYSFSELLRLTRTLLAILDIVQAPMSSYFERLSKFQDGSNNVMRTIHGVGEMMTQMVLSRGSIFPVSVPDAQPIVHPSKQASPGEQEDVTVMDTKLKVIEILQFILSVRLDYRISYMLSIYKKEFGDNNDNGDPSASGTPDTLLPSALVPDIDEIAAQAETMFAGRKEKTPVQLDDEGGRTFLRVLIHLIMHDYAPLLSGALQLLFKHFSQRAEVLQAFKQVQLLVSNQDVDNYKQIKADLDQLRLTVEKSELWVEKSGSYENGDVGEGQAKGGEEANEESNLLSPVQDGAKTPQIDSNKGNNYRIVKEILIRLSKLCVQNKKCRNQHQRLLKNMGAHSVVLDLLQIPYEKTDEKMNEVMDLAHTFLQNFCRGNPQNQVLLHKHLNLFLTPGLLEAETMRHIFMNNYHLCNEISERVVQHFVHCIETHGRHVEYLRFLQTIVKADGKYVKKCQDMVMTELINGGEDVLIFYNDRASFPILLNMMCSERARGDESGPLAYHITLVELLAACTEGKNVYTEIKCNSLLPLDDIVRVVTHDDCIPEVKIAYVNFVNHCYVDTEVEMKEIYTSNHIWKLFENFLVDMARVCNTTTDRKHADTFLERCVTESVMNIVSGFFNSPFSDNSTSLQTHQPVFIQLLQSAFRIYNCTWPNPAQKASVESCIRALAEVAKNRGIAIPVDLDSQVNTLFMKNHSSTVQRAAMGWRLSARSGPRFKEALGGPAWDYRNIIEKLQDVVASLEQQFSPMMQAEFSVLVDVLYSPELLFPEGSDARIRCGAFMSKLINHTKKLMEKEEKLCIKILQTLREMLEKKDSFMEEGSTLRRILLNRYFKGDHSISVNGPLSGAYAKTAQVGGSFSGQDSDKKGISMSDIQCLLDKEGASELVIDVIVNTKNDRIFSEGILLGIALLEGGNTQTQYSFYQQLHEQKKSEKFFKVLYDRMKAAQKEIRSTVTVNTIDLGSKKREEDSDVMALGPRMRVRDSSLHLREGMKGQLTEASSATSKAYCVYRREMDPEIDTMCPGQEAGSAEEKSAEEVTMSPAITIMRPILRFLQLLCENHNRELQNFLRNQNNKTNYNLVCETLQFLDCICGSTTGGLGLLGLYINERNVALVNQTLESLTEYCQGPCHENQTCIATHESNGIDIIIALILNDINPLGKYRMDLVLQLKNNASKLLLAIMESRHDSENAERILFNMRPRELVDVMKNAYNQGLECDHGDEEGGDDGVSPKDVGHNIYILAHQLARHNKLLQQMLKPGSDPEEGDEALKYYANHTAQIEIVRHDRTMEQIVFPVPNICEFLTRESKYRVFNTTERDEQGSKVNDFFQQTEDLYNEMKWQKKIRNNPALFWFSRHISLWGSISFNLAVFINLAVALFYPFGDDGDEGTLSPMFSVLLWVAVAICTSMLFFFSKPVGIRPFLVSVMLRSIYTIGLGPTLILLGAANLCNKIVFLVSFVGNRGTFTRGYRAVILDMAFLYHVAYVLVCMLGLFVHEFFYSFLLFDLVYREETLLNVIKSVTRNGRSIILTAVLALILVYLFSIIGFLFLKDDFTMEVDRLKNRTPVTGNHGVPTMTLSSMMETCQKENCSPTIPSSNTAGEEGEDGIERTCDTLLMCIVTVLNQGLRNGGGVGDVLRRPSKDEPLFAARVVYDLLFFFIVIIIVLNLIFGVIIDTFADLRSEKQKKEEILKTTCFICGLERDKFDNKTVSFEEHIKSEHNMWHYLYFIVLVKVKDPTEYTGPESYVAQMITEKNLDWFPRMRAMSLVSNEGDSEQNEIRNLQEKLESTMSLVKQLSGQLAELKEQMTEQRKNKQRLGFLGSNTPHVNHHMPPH
Method: (§2) We used DT40 cells lacking endogenous IP3Rs (Sugawara et al., [1997]), but stably expressing rat IP3R1 (GenBank accession number GQ233032.1; Pantazaka and Taylor, [2011]), mouse IP3R2 (GU980658.1; Tovey et al., [2010]) or rat IP3R3 (GQ233031.1; Rahman et al., [2009]). Cells were grown in suspension in RPMI 1640 medium supplemented with 10% FBS, 1% heat-inactivated chicken serum, 2 mM glutamine and 50 μM 2-mercaptoethanol at 37°C in humidified air containing 5% CO2. Cells were used or passaged when they reached a density of ∼1.5 × 10^6 cells mL^−1.
(§3) A low-affinity Ca^2+ indicator trapped within the ER of permeabilized DT40 cells was used to measure IP3-evoked Ca^2+ release (Tovey et al., [2006]; Saleem et al., [2012]). Briefly, the ER was loaded with indicator by incubating cells (∼5 × 10^7 mL^−1) in the dark with Mag-fluo-4AM (20 μM) in HEPES-buffered saline (HBS) containing 0.02% (v/v) Pluronic F127 for 1 h at 22°C. HBS had the following composition: 135 mM NaCl, 5.9 mM KCl, 11.6 mM HEPES, 1.5 mM CaCl2, 11.5 mM glucose, 1.2 mM MgCl2, pH 7.3. After permeabilization of the plasma membrane with saponin (10 μg·mL^−1, 4 min, 37°C) in Ca^2+-free cytosol-like medium (CLM), permeabilized cells were washed (650× g, 2 min) and resuspended (∼10^7 mL^−1) in Mg^2+-free CLM containing carbonyl cyanide 4-(trifluoromethoxy) phenylhydrazone (FCCP, 10 μM) to inhibit mitochondria, and supplemented with CaCl2 to give a final free [Ca^2+] of 220 nM after addition of 1.5 mM MgATP. Ca^2+-free CLM had the following composition: 2 mM NaCl, 140 mM KCl, 1 mM EGTA, 20 mM PIPES, 2 mM MgCl2, pH 7.0. Permeabilized cells were then distributed into 96-well plates (50 μL, 5 × 10^5 cells per well), centrifuged (300× g, 2 min) and used for experiments at 20°C. Addition of MgATP (1.5 mM) allowed Ca^2+ uptake by the ER, which was monitored at intervals of ∼1 s using a FlexStation-3 plate reader (MDS Analytical Devices, Berkshire, UK; Tovey et al., [2006]). After 2 min, when the ER had loaded to steady-state with Ca^2+, IP3 was added with CPA (10 μM) to inhibit further Ca^2+ uptake. IP3-evoked Ca^2+ release was expressed as a fraction of that released by ionomycin (1 μM; Tovey et al., [2006]). Similar methods were used to measure IP3-evoked Ca^2+ release from intact or permeabilized HEK cells (Tovey et al., [2008]). The timings of antagonist additions are described in the figure legends. The affinity of each competitive antagonist (pKD) was determined from the intercept on the abscissa of the Schild plot.
(§4) Concentration–effect relationships were fitted to Hill equations using Prism (version 5.0, GraphPad, San Diego, CA, USA), from which Hill coefficients (h), the fraction of the intracellular Ca^2+ stores released by a maximally effective concentrations of IP3, and pEC50 values were calculated.

[4] = molecular target: T2, rat IP3R3 (Rattus norvegicus, UniProt Q63269); assay: IP3-evoked Ca^2+ release from permeabilized DT40-IP3R3 cells; type: cell-based
T2 construct: different for NTs (NT2 > NT1 > > NT3) and full-length IP3Rs (IP3R3 > IP3R1 ≥ IP3R2); expressed in transfected cells
Method: as §2, §3, §4

[5] = molecular target: T3, NT2 (residues 1–604 of mouse IP3R2) (Mus musculus, UniProt Q9Z329); assay: Equilibrium-competition binding with ^3H-IP3 to purified NT2; conditions: NT versus corresponding full-length IP3R
T3 construct: N-terminal fragments (NT, residues 1–604) of rat IP3R1, mouse IP3R2 and rat IP3R3; GST (cleaved yes); made in house; host or cells: E. coli BL21-CodonPlus (DE3)-RILP
T3 sequence (Q9Z329 1-604): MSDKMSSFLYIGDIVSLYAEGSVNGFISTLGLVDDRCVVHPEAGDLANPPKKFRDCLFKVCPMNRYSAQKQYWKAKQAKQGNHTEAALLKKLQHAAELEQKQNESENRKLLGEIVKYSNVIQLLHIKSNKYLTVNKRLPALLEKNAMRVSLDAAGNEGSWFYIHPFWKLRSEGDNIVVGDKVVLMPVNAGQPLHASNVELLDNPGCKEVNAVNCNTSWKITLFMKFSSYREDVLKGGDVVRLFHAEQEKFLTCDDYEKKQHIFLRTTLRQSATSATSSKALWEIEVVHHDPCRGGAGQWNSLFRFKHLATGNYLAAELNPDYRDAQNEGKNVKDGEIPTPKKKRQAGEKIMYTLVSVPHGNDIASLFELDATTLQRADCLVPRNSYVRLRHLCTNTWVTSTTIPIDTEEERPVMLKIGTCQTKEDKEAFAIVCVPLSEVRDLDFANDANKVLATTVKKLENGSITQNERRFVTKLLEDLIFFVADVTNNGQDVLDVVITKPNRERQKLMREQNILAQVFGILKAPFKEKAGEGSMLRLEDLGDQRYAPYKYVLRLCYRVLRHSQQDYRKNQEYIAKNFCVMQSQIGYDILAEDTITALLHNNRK
Method: The plasmids used for bacterial expression of GST-tagged N-terminal fragments (NT, residues 1–604) of rat IP3R1, mouse IP3R2 and rat IP3R3 have been described, and their coding sequences have been confirmed (Khan et al., [2013]). Plasmids were transformed into BL21-CodonPlus (DE3)-RILP competent cells (Rossi and Taylor, [2011]), and grown for 12 h at 37°C in 20 mL of Luria-Bertani (LB) medium containing carbecillin (50 μg·mL^−1). The volume of medium was then increased to 1 L, and the incubation was continued at 37°C for 3–4 h until the OD600 reached 1–1.5. Protein expression was induced by addition of IPTG (0.5 mM) for 20 h at 15°C. Bacteria were harvested (6000× g, 5 min), washed twice with cold PBS, and the pellet was suspended (∼10^9 cells·mL^−1) in 50 mL of Tris-EDTA medium (TEM: 50 mM Tris, 1 mM EDTA, pH 8.3) supplemented with 10% PopCulture, 1 mM 2-mercaptoethanol and protease inhibitor cocktail (Roche, Burgess Hill, West Sussex, UK; 1 tablet per 50 mL). […]
as §1

[6] = molecular target: T4, rat IP3R1 (Rattus norvegicus, UniProt P29994); assay: IP3-evoked Ca^2+ release from permeabilized DT40-IP3R1 cells; type: cell-based
T4 construct: different for NTs (NT2 > NT1 > > NT3) and full-length IP3Rs (IP3R3 > IP3R1 ≥ IP3R2); expressed in transfected cells
Method: as §2, §3, §4

[7] = tested on: HEK cells; assay: Carbachol-evoked Ca^2+ signals in intact HEK cells; type: cell-based; conditions: Homo sapiens, HEK293; intact fluo-4-loaded HEK cells; control cells; read-out: pEC50 for the carbachol-evoked Ca^2+ signals (converted)
Method: as §3

[8] = IP3R2, IP3-evoked Ca^2+ release
[9] = IP3R3, AdA-evoked Ca^2+ release
[10] = IP3R1, AdA-evoked Ca^2+ release
[11] = IP3R1, IP3-evoked Ca^2+ release
[12] = IP3R1, heparin 400 μg·mL^−1, Δ = control – response with antagonist

Cn1c(=O)c2c(ncn2C)n(C)c1=O [Caffeine]
effect on binding of ^3H-IP3 to cerebellar membranes [1]: without affecting | effect on Ca^2+ content of the intracellular stores ([2]; DT40-IP3R1-3 cells, caffeine 70 mM added 2 min before ATP): significantly reduced

Heparin
KD for heparin (Schild plot) [3, 8]: 22 µg/mL | slope of the Schild plots [3, 8]: 0.97 ± 0.06 | ΔMax ([3]; IP3R2, heparin 800 μg·mL^−1): −4 ± 2% | ΔpEC50 ([3]; IP3R2, heparin 800 μg·mL^−1): 1.49 ± 0.09 M | pEC50(IP3)-pKD(heparin) ([3]; IP3R2, paired comparisons): 2.16 ± 0.09 | KD for heparin (Schild plot) [4, 9]: 2.1 µg/mL | slope of the Schild plots [4, 9]: 0.98 ± 0.04 | slope of the Schild plots ([4]; IP3R3, IP3-evoked Ca^2+ release): 1.14 ± 0.41 | KD for heparin (Schild plot) ([4]; IP3R3, IP3-evoked Ca^2+ release, 40% Ca^2+ release): 2.8 µg/mL | ΔMax ([4]; IP3R3, heparin 400 μg·mL^−1): −3 ± 3% | ΔpEC50 ([4]; IP3R3, heparin 400 μg·mL^−1): 2.34 ± 0.07 M | pEC50(IP3)-pKD(heparin) ([4]; IP3R3, paired comparisons): 1.11 ± 0.08 | affinity of the NT for heparin relative to that measured in functional analyses / full-length IP3R [5]: up to 2000 fold | KD for heparin (Schild plot) [6, 10]: 6.9 µg/mL | slope of the Schild plots [6, 10]: 0.94 ± 0.03 | KD for heparin (Schild plot) [6, 11]: 4.1 µg/mL | slope of the Schild plots [6, 11]: 0.95 ± 0.02 | ΔMax [6, 12]: −7 ± 2% | ΔpEC50 [6, 12]: 1.88 ± 0.05 M | pEC50(IP3)-pKD(heparin) ([6]; IP3R1, paired comparisons): 2.08 ± 0.02

C[N+](C)(C)CCOC(N)=O [carbachol, Carbachol]
EC50 [7]: 10200 nM

NCCOB(c1ccccc1)c1ccccc1 [2-APB, 2-aminoethoxydiphenyl borate]
effect on IP3-evoked Ca^2+ release ([3]; DT40-IP3R2 cells, 2-APB 50 μM): no significant effect | ΔMax ([3]; IP3R2, 2-APB 50 μM): 0 ± 4% | effect on IP3-evoked Ca^2+ release ([3]; IP3R2, 2-APB 100 μM): no effect | effect on IP3-evoked Ca^2+ release ([4]; DT40-IP3R3 cells, 2-APB 50 μM): no significant effect | ΔMax ([4]; IP3R3, 2-APB 50 μM): 8 ± 4% | ΔpEC50 ([4]; IP3R3, 2-APB 50 μM): 0.02 ± 0.09 M | effect on IP3-evoked Ca^2+ release ([4]; IP3R3, 2-APB 100 μM): some inhibition | effect on binding of ^3H-IP3 to cerebellar membranes [1]: unaffected | ΔMax ([6]; IP3R1, 2-APB 50 μM): 0 ± 4% | ΔpEC50 ([6]; IP3R1, 2-APB 50 μM added 35 s before IP3): 0.84 ± 0.12 M | effect on Ca^2+ uptake by the ER ([2]; permeabilized DT40-IP3R1 cells, 50 μM 2-APB): no effect | effect on steady-state Ca^2+ content of the ER ([2]; permeabilized DT40-IP3R1 cells, 2-APB concentrations higher than 50 μM): reduced the steady-state Ca^2+ content

Nc1ncnc2c1ncn2[C@@H]1O[C@H](CO)[C@@H](O[C@H]2O[C@H](CO)[C@@H](OP(=O)(O)O)[C@H](OP(=O)(O)O)[C@H]2O)[C@H]1OP(=O)(O)O [AdA, adenophostin A]
EC50 ([4]; permeabilized DT40-IP3R3 cells, read-out: pEC50 (IP3 or AdA-evoked Ca^2+ release) (converted)): 19.5 nM | EC50 ([6]; permeabilized DT40-IP3R1 cells, read-out: pEC50 (IP3 or AdA-evoked Ca^2+ release) (converted)): 4.47 nM

Reference: paper PMC4080982, “Interactions of antagonists with subtypes of inositol 1,4,5-trisphosphate (IP3) receptor” (British Journal of Pharmacology, 2014)
